Results reported in patent publication US8703796B2, “3H-imidazo [4, 5-B] pyridine-6-carboxamides as anti-inflammatory agents” (Boehringer Ingelheim International GmbH, priority 2008, dated 2014).

Biological target: T1, recombinant human mPGES-1 (Homo sapiens, UniProt O14684)
T1 construct: made in house; host or cells: Rosetta E. coli (microsomal/membrane fraction)
T1 sequence (O14684 1-152): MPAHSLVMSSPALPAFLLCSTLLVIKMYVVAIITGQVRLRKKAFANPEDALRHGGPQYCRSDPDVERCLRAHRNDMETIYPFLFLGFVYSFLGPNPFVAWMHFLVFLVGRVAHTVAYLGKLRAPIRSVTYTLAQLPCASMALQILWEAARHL
Assay: mPGES-1 inhibition, HTRF detection of PGE2
Assay type: biochemical
Procedure: Microsomes from Rosetta E. coli bacteria expressing recombinant human mPGES-1 is dissolved in 0.1 M KPi pH 7.4 buffer containing 2.5 mM GSH. 50 μl of the enzyme is subsequently dispensed in a 384-well plate. 0.5 μl of the inhibitor dissolved in DMSO at is thereafter added to each well and incubated for 25 minutes at room temperature. Subsequently, 2 μl of PGH2 dissolved in an appropriate solvent is added to each well and after one minute the acidified stop solution containing FeCl2 is added. 4 μl of the total volume is transferred to a separate plate and diluted 750-fold in two separate steps before HTRF detection of PGE2.
The HTRf detection is performed by the use of a commercially available kit from CisBio essentially according to the manufacturer's protocol. Briefly, 10 μl of the diluted sample is transferred to a white 384-well plate. 5 μl of d2 and 5 μl Eu3+-Cryptate labeled anti-PGE2 is added to each well containing samples by the use of a Multidrop. The plate is covered with a plastic self-adhesive film, centrifuged at 1200 rpm for 1 minute and subsequently stored at +4° C. over night.
After over night incubation the fluorescence is measured by the use of an appropriate microplate reader. The fluorescence of europium cryptate, and d2 are measured using the following excitation and emission wavelength, europium cryptate: λmax^ex=307 nm, λmax^em=620 nm and d2: λmax^ex=620 nm, λmax^em=665 nm), respectively. The extent of the specific FRET is measured as a ratio of the emission intensity at 665 nm vs. that at 620 nm. A standard curve using synthetic PGE2 is used to quantify the amount of PGE2 in unknown samples.

inhibition at 10 µM [%]	Structure (SMILES)
100	O=C(N[C@H]1CC[C@H](C(F)(F)F)CC1)c1cc2nc(Nc3c(Cl)cc(F)cc3Cl)[nH]c2nc1OCC(F)(F)F [Example 827, 2-(2,6-Dichloro-4-fluoro-phenylamino)-5-(2,2,2-trifluoro-ethoxy)-N-(trans-4-trifluoromethyl-cyclohexyl)-3H-imidazo[4,5-b]pyridine-6-carboxamide]
99	O=C(N[C@H]1CC[C@H](C(F)(F)F)CC1)c1cc2nc(Nc3cnccc3C(F)(F)F)[nH]c2nc1OCC(F)F [Example 799, 2-(4-Trifluoromethyl-pyridin-3-ylamino)-5-(2,2-difluoro-ethoxy)-N-(trans-4-trifluoromethyl-cyclohexyl)-3H-imidazo[4,5-b]pyridine-6-carboxamide]
96	Cn1c(Nc2c(Cl)cncc2Cl)nc2cc(C(=O)Nc3ccc(Br)cc3)c(OCC(F)F)nc21 [Example 837, 2-(3,5-Dichloro-pyridin-4-ylamino)-5-(2,2-difluoro-ethoxy)-N-(4-bromo-phenyl)-3-methyl-3H-imidazo[4,5-b]pyridine-6-carboxamide]
96	O=C(N[C@H]1CC[C@H](C(F)(F)F)CC1)c1cc2nc(Nc3c(Cl)ccc(Cl)c3F)[nH]c2nc1OCC(F)F [Example 796, 2-(3,6-Dichloro-2-fluoro-phenylamino)-5-(2,2-difluoro-ethoxy)-N-(trans-4-trifluoromethyl-cyclohexyl)-3H-imidazo[4,5-b]pyridine-6-carboxamide]
95	Cn1c(Nc2c(Cl)cncc2Cl)nc2cc(C(=O)NCc3ncccc3C(F)(F)F)c(OCCF)nc21 [Example 835, 2-(3,5-Dichloro-pyridin-4-ylamino)-5-(2-fluoro-ethoxy)-N-((3-trifluoromethyl-pyridin-2-yl)-methyl)-3-methyl-3H-imidazo[4,5-b]pyridine-6-carboxamide]
94	Cn1c(Nc2c(Cl)cncc2Cl)nc2cc(C(=O)N[C@H]3CC[C@H](C(F)(F)F)CC3)c(OCC(F)F)nc21 [Example 838, 2-(3,5-Dichloro-pyridin-4-ylamino)-5-(2,2-difluoro-ethoxy)-N-(trans-4-trifluoromethyl-cyclohexyl)-3-methyl-3H-imidazo[4,5-b]pyridine-6-carboxamide]
99	O=C(Nc1ccc(Br)cc1)c1cc2nc(Nc3c(Cl)cc(F)cc3Cl)[nH]c2nc1OCC(F)(F)F [Example 820, 2-(2,6-Dichloro-4-fluoro-phenylamino)-5-(2,2,2-trifluoro-ethoxy)-N-(4-bromo-phenyl)-3H-imidazo[4,5-b]pyridine-6-carboxamide]
100	Cn1c(Nc2c(Cl)cc(F)cc2Cl)nc2cc(C(=O)Nc3cc(C(F)(F)F)ccn3)c(OCC(F)(F)F)nc21 [Example 815, 2-(2,6-Dichloro-4-fluoro-phenylamino)-5-(2,2,2-trifluoro-ethoxy)-N-(4-trifluoromethyl-pyridin-2-yl)-3-methyl-3H-imidazo[4,5-b]pyridine-6-carboxamide]
100	Cn1c(Nc2c(Cl)cc(F)cc2Cl)nc2cc(C(=O)N[C@H]3CC[C@H](C(F)(F)F)CC3)c(OCCF)nc21 [Example 870, 2-(2,6-Dichloro-4-fluoro-phenylamino)-5-(2-fluoro-ethoxy)-N-(trans-4-trifluoromethyl-cyclohexyl)-3-methyl-3H-imidazo[4,5-b]pyridine-6-carboxamide]
99	O=C(Nc1cc(C(F)(F)F)ccn1)c1cc2nc(Nc3c(Cl)cncc3Cl)[nH]c2nc1OCC(F)F [Example 803, 2-(3,5-Dichloro-pyridin-4-ylamino)-5-(2,2-difluoro-ethoxy)-N-(4-trifluoromethyl-pyridin-2-yl)-3H-imidazo[4,5-b]pyridine-6-carboxamide]
97	Cn1c(Nc2c(Cl)cc(F)cc2Cl)nc2cc(C(=O)N[C@H]3CC[C@H](C(F)(F)F)CC3)c(OCC(F)(F)F)nc21 [Example 814, 2-(2,6-Dichloro-4-fluoro-phenylamino)-5-(2,2,2-trifluoro-ethoxy)-N-(trans-4-trifluoromethyl-cyclohexyl)-3-methyl-3H-imidazo[4,5-b]pyridine-6-carboxamide]
100	O=C(NCc1ncccc1C(F)(F)F)c1cc2nc(Nc3c(Cl)cc(F)cc3Cl)[nH]c2nc1OCC(F)F [Example 826, 2-(2,6-Dichloro-4-fluoro-phenylamino)-5-(2,2-difluoro-ethoxy)-N-((3-trifluoromethyl-pyridin-2-yl)-methyl)-3H-imidazo[4,5-b]pyridine-6-carboxamide]
98	O=C(NCc1ccccc1C(F)(F)F)c1cc2nc(Nc3c(Cl)cncc3Cl)[nH]c2nc1OCC(F)F [Example 805, 2-(3,5-Dichloro-pyridin-4-ylamino)-5-(2,2-difluoro-ethoxy)-N-((2-trifluoromethyl-phenyl)-methyl)-3H-imidazo[4,5-b]pyridine-6-carboxamide]

Second part, the molecule before the results:

Structure (SMILES)	inhibition at 10 µM [%]
COCCOc1nc2[nH]c(Nc3c(Cl)cncc3Cl)nc2cc1C(=O)NCC(F)(F)C(F)(F)C(F)(F)C(F)(F)F [Example 802, 2-(3,5-Dichloro-pyridin-4-ylamino)-5-(2-methoxy-ethoxy)-N-(2,2,3,3,4,4,5,5,5-nonafluoro-pentyl)-3H-imidazo[4,5-b]pyridine-6-carboxamide]	96
Cn1c(Nc2c(Cl)cc(F)cc2Cl)nc2cc(C(=O)NCC(F)(F)C(F)(F)C(F)(F)C(F)(F)F)c(OCC(F)(F)F)nc21 [Example 873, 2-(2,6-Dichloro-4-fluoro-phenylamino)-5-(2,2,2-trifluoro-ethoxy)-N-(2,2,3,3,4,4,5,5,5-nonafluoropentyl)-3-methyl-3H-imidazo[4,5-b]pyridine-6-carboxamide]	100
Cn1c(Nc2c(F)cccc2Cl)nc2cc(C(=O)N[C@H]3CC[C@H](C)CC3)cnc21 [Example 486, 2-(2-Chloro-6-fluorophenylamino)-3-methyl-N-((1r,4r)-4-methycyclohexyl)-3H-imidazo[4,5-b]pyridine-6-carboxamide]	100
CCCCC[C@@H](C)NC(=O)c1cnc2c(c1)nc(Nc1c(Cl)cccc1Cl)n2C [Example 449, (R)-2-(2,6-Dichlorophenylamino)-N-(hept-2-yl)-3-methyl-3H-imidazo[4,5-b]pyridine-6-carboxamide]	98
COc1nc2c(cc1C(=O)Nc1ccc(Br)cc1)nc(Nc1c(Cl)cccc1Cl)n2C [Example 377, N-(4-Bromophenyl)-2-(2,6-dichlorophenylamino)-5-methoxy-3-methyl-3H-imidazo[4,5-b]pyridine-6-carboxamide]	100
CC(C)n1c(Nc2c(F)cccc2Cl)nc2cc(C(=O)NC3CCC(C)(C)CC3)cnc21 [Example 511, 2-(2-Chloro-6-fluorophenylamino)-N-(4,4-dimethylcyclohexyl)-3-isopropyl-3H-imidazo[4,5-b]pyridine-6-carboxamide]	96
CCCCCCCCNC(=O)c1cnc2c(c1)nc(Nc1c(Cl)cccc1Cl)n2C [Example 403, 2-(2,6-Dichlorophenylamino)-3-methyl-N-octyl-3H-imidazo[4,5-b]pyridine-6-carboxamide]	100
CCOc1nc2[nH]c(Nc3c(Cl)cncc3Cl)nc2cc1C(=O)NCC(F)(F)C(F)(F)C(F)(F)C(F)(F)F [Example 844, 2-(3,5-Dichloro-pyridin-4-ylamino)-5-ethoxy-N-(2,2,3,3,4,4,5,5,5-nonafluoro-pentyl)-3H-imidazo[4,5-b]pyridine-6-carboxamide]	100
O=C(Nc1ccc(Br)cc1)c1cnc2[nH]c(Nc3c(Cl)cccc3Cl)nc2c1 [Example 401, N-(4-Bromophenyl)-2-(2,6-dichlorophenylamino)-3H-imidazo[4,5-b]pyridine-6-carboxamide]	100
Cc1ccnc(C)c1Nc1nc2cc(C(=O)N[C@H]3CC[C@H](C(F)(F)F)CC3)c(OCC(F)F)nc2[nH]1 [Example 794, 2-(2,4-Dimethyl-pyridin-3-ylamino)-5-(2,2-difluoro-ethoxy)-N-(trans-4-trifluoromethyl-cyclohexyl)-3H-imidazo[4,5-b]pyridine-6-carboxamide]	100
O=C(NCC(F)(F)C(F)(F)C(F)(F)C(F)(F)F)c1cc2nc(Nc3c(Cl)cncc3Cl)[nH]c2nc1OCC(F)F [Example 807, 2-(3,5-Dichloro-pyridin-4-ylamino)-5-(2,2-difluoro-ethoxy)-N-(2,2,3,3,4,4,5,5,5-nonafluoro-pentyl)-3H-imidazo[4,5-b]pyridine-6-carboxamide]	90
CCCCCCCNC(=O)c1cnc2c(c1)nc(Nc1c(Cl)cccc1Cl)n2C [Example 448, 2-(2,6-Dichlorophenylamino)-N-heptyl-3-methyl-3H-imidazo[4,5-b]pyridine-6-carboxamide]	100
